For experiment [1], the target named is aminopeptidase from barley seeds. Put plainly: Inhibition of aminopeptidase from barley seeds (L-Leu-pNa hydrolysis, absorbance at 405 nm). The experiment is classed as biochemical, barley (Hordeum vulgare L.). The settings on record: for Ki / Barley Seed AP Ki + SD: racemic compounds, apparent Ki ± SD, 50 mM Tris-HCl pH 8.0, 37 °C, substrate L-Leu-pNa, in = inactive at a concentration of 1 mM; for Ki: read-out: Barley Seed AP Ki + SD; for inhibitory action: barley enzyme. How it is done: Aminopeptidase from barley seeds (Hordeum vulgare L.) was isolated and purified based on the procedure described previously. The following steps were used: (i) ammonium sulfate precipitation, (ii) gel chromatography (Sephadex G-25, Sephacryl HR 300), followed by (iii) ion chromatography (DEAE—Sepharose). The molecular mass of the extracted enzyme was ~58 kDa. Because of the low stability of the concentrated enzyme solution, it was prepared directly before each kinetic study.
(§1) The activity of pAPN (KM = 0.52 mM) was determined as described in the literature. The activity of aminopeptidase from barley seeds was determined at 37 °C in 50 mM Tris-HCl, pH 8.0, containing 50 mM NaCl and 10 mM β-mercaptoethanol using substrate L-leucine-p-nitroanilidine (L-Leu-pNa) dissolved in DMSO. The kinetics parameters of the purified enzyme were measured for L-Leu-pNa at ten final concentrations (ranging from 0.1 to 1.0 mM) and being repeated two times. The KM value of barley seeds aminopeptidase was determined by using the Lineweaver–Burk weighted regression method (see Table S7 and Plot 1 in the Supplementary Information).
The assay mixture of the aminopeptidase from barley seeds, totaling 1.095 mL, contained 50 mM Tris-HCl buffer (pH 8.0) with 50 mM NaCl and 10 mM β-mercaptoethanol, 0.025 mL of the substrate L-Leu-pNa dissolved in DMSO (used in 0.4–0.1 mM range of the final concentration), 0.05 mL of varying concentrations of the potential inhibitor (dependent on the potency of the compound), and 0.02 mL enzyme (0.030 mg of protein).
(§2) The progress of the enzymatic reaction for both enzymes was measured at 37 °C for 10 min and was monitored spectrophotometrically (UV-VIS Spectrophotometer, JASCO V-730) by following the change in absorbance at 405 nm (formation of p-nitroaniline). The extinction coefficient for pNa was 9620 M^−1cm^−1.
(§3) Inhibition constants were determined considering four substrate concentrations and five concentrations of each inhibitor, with each measurement being repeated at least twice.
(§4) The rate of enzymatic reaction was studied following the reaction progress (changes in absorbance of L-Leu-pNa over time). Kinetics constants, namely Ki and IC50, and the type of the inhibition were determined using Lineweaver–Burk, Dixon, and Hanes–Wolf procedures. For each parameter, relative errors were calculated.
The progress of the enzymatic reactions was monitored spectrophotometrically (UV-VIS Spectrophotometer JASCO V-730) by following the change in absorbance at 405 nm (formation of p-nitroanilide). The extinction coefficient for L- […]
The kinetic parameters (KM and Vmax) for aminopeptidase from barley seeds were determined by using the Lineweaver–Burk (L-B) weighted regression method. The measured KM value was 0.21 mM ± 0.14 and was used to determine the inhibitory constants of the all evaluated inhibitors.
Table S7. The kinetic parameters characterizing activity of the isolated aminopeptidase from barley seeds. […]
Lineweaver-Burk regression
Plot S1. Graphical determination of the KM value for aminopeptidase from barley seeds by using Lineweaver-Burk: unweighted (blue line) and weighted (red line) regression method.

The target of experiment [2] is T1, porcine aminopeptidase N (pAPN) (Sus scrofa, UniProt P15145).
T1 construct: Microsomal leucine aminopeptidase (APN, EC 3.4.11.2) from porcine kidney was purchased from Sigma Aldrich; purchased Sigma Aldrich; host or cells: porcine kidney (tissue-derived)
T1 sequence (P15145 1-963): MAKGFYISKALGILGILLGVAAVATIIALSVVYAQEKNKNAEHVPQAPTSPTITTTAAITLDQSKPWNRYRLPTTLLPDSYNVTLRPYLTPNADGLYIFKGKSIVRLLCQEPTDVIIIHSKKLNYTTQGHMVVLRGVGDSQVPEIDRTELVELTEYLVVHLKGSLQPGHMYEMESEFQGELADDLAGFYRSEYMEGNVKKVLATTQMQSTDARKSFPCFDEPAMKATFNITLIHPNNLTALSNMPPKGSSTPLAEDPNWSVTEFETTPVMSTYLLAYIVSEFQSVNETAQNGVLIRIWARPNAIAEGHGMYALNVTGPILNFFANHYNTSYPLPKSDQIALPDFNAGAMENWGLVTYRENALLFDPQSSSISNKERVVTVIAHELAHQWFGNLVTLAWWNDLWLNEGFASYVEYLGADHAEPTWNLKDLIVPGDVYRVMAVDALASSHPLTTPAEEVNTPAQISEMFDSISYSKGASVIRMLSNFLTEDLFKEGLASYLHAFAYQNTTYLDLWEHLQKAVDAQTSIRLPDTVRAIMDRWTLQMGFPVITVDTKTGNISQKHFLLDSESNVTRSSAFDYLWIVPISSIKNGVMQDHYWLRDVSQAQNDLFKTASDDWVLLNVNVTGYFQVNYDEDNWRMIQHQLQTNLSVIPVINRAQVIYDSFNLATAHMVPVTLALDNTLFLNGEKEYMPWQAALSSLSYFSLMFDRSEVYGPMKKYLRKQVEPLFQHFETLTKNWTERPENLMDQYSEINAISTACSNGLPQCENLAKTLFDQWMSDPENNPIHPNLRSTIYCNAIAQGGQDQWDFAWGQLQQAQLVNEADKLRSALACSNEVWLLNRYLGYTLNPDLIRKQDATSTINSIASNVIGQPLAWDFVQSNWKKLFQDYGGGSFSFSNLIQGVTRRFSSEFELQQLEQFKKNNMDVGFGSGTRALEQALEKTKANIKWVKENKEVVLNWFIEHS
Put plainly: Inhibition of porcine kidney aminopeptidase N (L-Leu-pNa hydrolysis, absorbance at 405 nm). Particulars: for Ki / pAPN Ki + SD: racemic compounds, apparent Ki ± SD, 50 mM potassium phosphate pH 7.2, 37 °C, substrate L-Leu-pNa, in = inactive at a concentration of 1 mM; for inhibitory action: pAPN. It is filed as biochemical. The protocol:
Microsomal leucine aminopeptidase (APN, EC 3.4.11.2) from porcine kidney was purchased from Sigma Aldrich. It was applied directly in kinetic measurements after dissolving in 50 mM potassium phosphate (pH 7.2). Such a solution should be stored in 4 °C for no longer than 2 days.
as §1
The assay mixture of the pAPN, totaling 1.01 mL, contained 50 mM potassium phosphate buffer (pH 7.2), 0.025 mL of the substrate L-Leu-pNa dissolved in DMSO (used in 0.4–0.1 mM range of the final concentration), 0.05 mL of the potential inhibitor in reaction buffer (in a concentration dependent on the potency of the compound), and 0.01 mL of the enzyme solution (4µg/mL final concentration).
as §2, §3, §4

As a reminder, the Km is the substrate concentration at which the rate is half of its maximum.

Regarding `NC(c1ccc(C(F)(F)F)cc1)P(=O)(O)O` (centres unmarked) [Compound 10], the Ki worked out at 686 ± 70 µM in experiment [1] and 56.3 ± 2.2 µM in experiment [2].

Regarding `NC(c1ccc(Cl)c(F)c1)P(=O)(O)O` (centres unmarked) [Compound 8], the Ki in experiment [1] was 103 ± 10 µM.

With `NC(c1ccc(F)c(F)c1)P(=O)(O)O` (centres unmarked) [Compound 5], the Ki in experiment [1] was 549 ± 54 µM.

As to `NC(c1c(F)cc(F)cc1F)P(=O)(O)O` (centres unmarked) [Compound 6], the “Barley Seed AP Ki + SD” value in experiment [1] is “in ^2”. Also, the “pAPN Ki + SD” value in experiment [2] is given as “in ^2”.

For `NC(c1ccccc1F)P(=O)(O)O` (centres unmarked) [Compound 1], the Ki in experiment [2] came out at 232 ± 22 µM.

As for `NC(c1ccc(O)cc1F)P(=O)(O)O` (centres unmarked) [Compound 14], in experiment [1], the “Barley Seed AP Ki + SD” value is given as “in ^2”.

As to `NC(c1c(F)c(F)c(F)c(F)c1F)P(=O)(O)O` (centres unmarked) [Compound 13], in experiment [1], the “inhibitory action” value is on record as “practically no inhibitory action” and the “Barley Seed AP Ki + SD” value is recorded as “in ^2”. Also, in experiment [2], the “inhibitory action” value was “practically no inhibitory action” and the “pAPN Ki + SD” value is “in ^2”.

Take `NC(c1ccc(C(F)(F)F)cc1F)P(=O)(O)O` (centres unmarked) [Compound 12]: in experiment [1], the “inhibitory action” value was “practically no inhibitory action” and the “Barley Seed AP Ki + SD” value is listed as “in ^2”. In experiment [2], the “inhibitory action” value is given as “practically no inhibitory action” and the “pAPN Ki + SD” value is given as “in ^2”.

For `CC(C)C[C@H](N)C(=O)Nc1ccc([N+](=O)[O-])cc1` [L-Leu-pNa, L-leucine-p-nitroanilidine, reference compound], the Km in experiment [1] (substrate of barley seed aminopeptidase, Lineweaver-Burk weighted regression, 37 °C, pH 8.0) came to 210 µM; in experiment [2] (substrate of pAPN) it was 520 µM.

As for `NC(c1ccc(Cl)cc1F)P(=O)(O)O` (centres unmarked) [Compound 9], the Ki in experiment [1] came to 818 ± 43 µM.

On to `NC(c1ccc(F)cc1F)P(=O)(O)O` (centres unmarked) [Compound 4], for which the Ki in experiment [1] came to 1420 ± 83 µM.

Turning to `NC(c1ccc(F)cc1)P(=O)(O)O` (centres unmarked) [Compound 3], the Ki in experiment [1] came out at 1100 ± 57 µM.

Take `NC(c1cc(F)cc(C(F)(F)F)c1)P(=O)(O)O` (centres unmarked) [Compound 11]: the Ki in experiment [1] came out at 1030 ± 73 µM; in experiment [2] it was 164 ± 7.7 µM.

`NC(c1ccc(F)c(Cl)c1)P(=O)(O)O` (centres unmarked) [Compound 7]: the Ki in experiment [1] was 62.1 ± 2.3 µM.

On to `NC(c1cccc(F)c1)P(=O)(O)O` (centres unmarked) [Compound 2], for which the Ki in experiment [1] was determined as 311 ± 27 µM; in experiment [2], 122 ± 10 µM.

For the origin of these results see publication PMC6789573, “Phosphonic Acid Analogues of Phenylglycine as Inhibitors of Aminopeptidases: Comparison of Porcine Aminopeptidase N, Bovine Leucine Aminopeptidase, Tomato Acidic Leucine Aminopeptidase and Aminopeptidase from Barley Seeds” (Pharmaceuticals, 2019).
